Test results reported in patent US12174198B2, “Methods of characterizing condensate-associated characteristics of compounds and uses thereof” (Dewpoint Therapeutics, Inc., priority 2019, dated 2024).
Structures can show the parent of a compound that is named as a salt.

Key:
Assay type in all cases: physicochemical
[1] = tested on: FUS-SNAP condensates versus PGL-3 condensates; experiment: Condensate preference: ratio of FUS-SNAP I-in:I-out to PGL-3 I-in:I-out; conditions: average FUS-SNAP I-in:I-out divided by average PGL-3 I-in:I-out
Method in brief: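 For each condensate type, mean intensity inside the target condensates is divided by the intensity outside (I-in:I-out). The ratios from two experiment days are averaged. Preference is expressed as the FUS-SNAP ratio relative to the PGL-3 ratio.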

FUS-SNAP condensates [2] = target: T1, FUS-SNAP condensates (Homo sapiens, UniProt P35637); experiment: Fluorescence-based assay of compound partitioning compared with the MS assay (Example 4); conditions: condensate volume fraction of 1/1000 used
T1 sequence (P35637 1-526): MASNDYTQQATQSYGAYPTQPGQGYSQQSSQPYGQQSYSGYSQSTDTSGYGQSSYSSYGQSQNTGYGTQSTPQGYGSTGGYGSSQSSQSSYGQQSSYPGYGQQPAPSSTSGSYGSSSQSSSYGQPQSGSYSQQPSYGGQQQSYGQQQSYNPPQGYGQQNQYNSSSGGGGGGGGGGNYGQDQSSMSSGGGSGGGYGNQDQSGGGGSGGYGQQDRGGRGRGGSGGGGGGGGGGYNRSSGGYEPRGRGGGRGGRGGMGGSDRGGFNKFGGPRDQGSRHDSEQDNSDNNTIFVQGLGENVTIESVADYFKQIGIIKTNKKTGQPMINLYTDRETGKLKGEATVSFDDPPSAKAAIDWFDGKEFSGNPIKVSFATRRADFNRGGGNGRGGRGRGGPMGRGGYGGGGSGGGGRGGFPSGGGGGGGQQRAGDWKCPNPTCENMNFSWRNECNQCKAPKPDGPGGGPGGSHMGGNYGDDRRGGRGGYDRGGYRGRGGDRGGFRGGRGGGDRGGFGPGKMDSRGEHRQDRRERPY
Protocol: The partition characteristics of the test compounds were also determined using the fluorescence-based assay method disclosed in Example 2.
Rhodamine 101 (Rho 101), Rhodamine 800 ([…]), Rhodamine B (Rho B), Rhodamine 123 (Rho 123), and fluorescein were assessed using both the fluorescence-based assay and the mass spectrometry-based assay, as discussed above. […] Using the measurements, a ratio of compound concentration associated with the condensate compared to compound concentration not associated with the condensate was calculated for each compound. A condensate volume fraction of 1/1000 in relation to the outside phase was used.

FUS-SNAP condensates [3] = target: T1, FUS-SNAP condensates; experiment: Fluorescence imaging of dye partitioning in FUS-SNAP condensates (I-in, I-out); conditions: for Ratio of intensity inside:outside FUS-SNAP Condensates Day 1 / Ratio of intensity inside:outside FUS-SNAP Condensates Day 2 / Ratio of intensity inside:outside FUS-SNAP Condensates Average: I-in:I-out; for Ratio of intensity inside:outside FUS-SNAP Condensates Day 1 / Ratio of intensity inside:outside FUS-SNAP Condensates Day 2 / Ratio of intensity inside:outside FUS-SNAP Condensates Average / Intensity Inside with Dye Average / Intensity Inside with Dye 1 / Intensity Inside with Dye 2 / Intensity Inside with Dye 3 / Intensity Outside with Dye Average / Intensity Outside with Dye 1 / Intensity Outside with Dye 2 / Intensity Outside with Dye 3: 10 μM dye; for Ratio of intensity inside:outside FUS-SNAP Condensates Average: average of two days; for Intensity Inside with Dye Average / Intensity Inside with Dye 1 / Intensity Inside with Dye 2 / Intensity Inside with Dye 3 / Intensity Inside Dye-No Dye: inside FUS-SNAP condensate; for Intensity Inside with Dye Average / Intensity Inside with Dye 1 / Intensity Inside with Dye 2 / Intensity Inside with Dye 3 / Intensity Outside with Dye Average / Intensity Outside with Dye 1 / Intensity Outside with Dye 2 / Intensity Outside with Dye 3: 5 μM protein; for Intensity Inside with Dye Average / Intensity Outside with Dye Average: average of three images; for Intensity Inside with Dye Average / Intensity Inside with Dye 1 / Intensity Inside with Dye 2 / Intensity Inside with Dye 3 / Intensity Inside Dye-No Dye / Intensity Outside with Dye Average / Intensity Outside with Dye 1 / Intensity Outside with Dye 2 / Intensity Outside with Dye 3 / Intensity Outside (Dye-No Dye): one day of experiments; for Intensity Inside with Dye 1 / Intensity Outside with Dye 1: image 1; for Intensity Inside with Dye 2 / Intensity Outside with Dye 2: image 2; for Intensity Inside with Dye 3 / Intensity Outside with Dye 3: image 3; for Intensity Inside Dye-No Dye / Intensity Outside (Dye-No Dye): background corrected; for Intensity Outside with Dye Average / Intensity Outside with Dye 1 / Intensity Outside with Dye 2 / Intensity Outside with Dye 3 / Intensity Outside (Dye-No Dye): outside FUS-SNAP condensate
Method in brief: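 Partitioning read by spinning-disk confocal imaging (60× oil, dye-specific exposure 1-1000 ms) of condensates formed from 5 μM protein (FUS-SNAP or untagged PGL-3) plus 10 μM dye, 75 mM KCl, 1% DMSO, pH 7.25. Background-subtracted intensities inside and beside one condensate per image, three images averaged.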

SMILES	Ratio of FUS-SNAP:PGL-3 [1]	Ratio of compound concentration in versus compound concentration out, Fluorescence-based assay (FUS-SNAP condensates [2])	Ratio of intensity inside:outside FUS-SNAP Condensates Day 1 (FUS-SNAP condensates [3])	Ratio of intensity inside:outside FUS-SNAP Condensates Day 2 (FUS-SNAP condensates [3])	Ratio of intensity inside:outside FUS-SNAP Condensates Average (FUS-SNAP condensates [3])	Intensity Inside with Dye Average (FUS-SNAP condensates [3])	Intensity Inside with Dye 1 (FUS-SNAP condensates [3])	Intensity Inside with Dye 2 (FUS-SNAP condensates [3])	Intensity Inside with Dye 3 (FUS-SNAP condensates [3])	Intensity Inside Dye-No Dye (FUS-SNAP condensates [3])	Intensity Outside with Dye Average (FUS-SNAP condensates [3])	Intensity Outside with Dye 1 (FUS-SNAP condensates [3])	Intensity Outside with Dye 2 (FUS-SNAP condensates [3])	Intensity Outside with Dye 3 (FUS-SNAP condensates [3])	Intensity Outside (Dye-No Dye) (FUS-SNAP condensates [3])
O=C([O-])c1ccccc1C1=c2cc3c4c(c2Oc2c1cc1c5c2CCCN5CCC1)CCC[N+]=4CCC3 [Dye 17, Rhodamine 101 inner salt]	3.2	1,500	6.1	5.9	6.0	4956.7	4695.6	5663.6	4511.0	4857.1	902.4	808.3	1011.5	887.5	802.5
O=C1OC2(c3ccc(O)cc3Oc3cc(O)ccc32)c2ccccc21 [Dye 6, Fluorescein]	1.5	1	1.7	1.4	1.5	6277.1	6328.8	6300.8	6201.7	6141.9	3784.7	3771.1	3840.2	3742.7	3680.6
N#CC1=c2cc3c4c(c2Oc2c1cc1c5c2CCCN5CCC1)CCC[N+]=4CCC3 [Dye 18, Rhodamine 800]	3.2	1,000	7.6	11.0	9.3	15051.4	15394.5	13908.5	15851.1	14919.5	2092.2	2064.2	1988.2	2224.3	1959.9
CCN(CC)c1ccc2c(-c3ccccc3C(=O)O)c3ccc(=[N+](CC)CC)cc-3oc2c1 [Dye 16, Rhodamine B]	3.0	666	4.4	3.8	4.1	2041.4	2154.5	2074.7	1895.0	1941.7	540.2	546.8	508.3	565.6	440.3
COC(=O)c1ccccc1-c1c2ccc(=N)cc-2oc2cc(N)ccc12.Cl [Dye 14, Rhodamine 123]	1.2	1	1.3	1.4	1.3	2970.4	3123.1	2956.9	2831.2	2835.2	2277.6	2174.8	2322.7	2335.1	2173.5
